Literature values in paper PMC9689602, “Evaluation of ^68Ga-Radiolabeled Peptides for HER2 PET Imaging” (Diagnostics, 2022).
Read-outs that look alike come from different tables or passages of the source. Values belong to the molecule of their own block, whether it stands above or below them.

Key:
HER2 = target: HER2
Method: Peptide imaging agents allow for quicker injection to imaging times along with a potential decrease in dose to the patient by using a shorter-lived radioisotope. Radiolabeled peptides are currently used in the clinic for the diagnosis of several cancer types. A widely used example is [^68Ga]DOTATATE (NETSPOT®) which was given FDA approval in 2016 and is used for imaging somatostatin receptor type 2 on neuroendocrine cancer with patient imaging 40 to 90 min after intravenous administration. Several HER2-targeting peptides have been reported which could have the potential to be ...

mice = settings: up to 1 g/kg intravenous injection
From the text: One drawback for peptides is their susceptibility to degradation from proteases present within organisms. […] Phosphoramidon can be used as an aid to protect peptides from quick degradation when evaluating our peptides in vivo. […] We are using phosphoramidon as a to ...

Molecule: KCCYSL
Kd (HER2; binding to HER2, read-out: equilibrium dissociation constant): 30 µM

Kd (HER2; highest affinity in OBOC library, read-out: affinity (Kd)): 0.0186 µM
Molecule: DTFPYLGWWNPNEYRY

Molecule: CC(C)C[C@H](NP(=O)(O)O[C@@H]1O[C@@H](C)[C@H](O)[C@@H](O)[C@H]1O)C(=O)N[C@@H](Cc1c[nH]c2ccccc12)C(=O)O [phosphoramidon, Phosphoramidon]
toxicity in mice (mice): low toxicity and no death

Kd (KCCYSL peptide): 30 µM
Molecule: HER2 (from UniProt P04626)
